According to patent US20090181953A1, “COMPOUND FORMS AND USES THEREOF” (WYETH, priority 2008, published 2009):

Experiments:
[1] = target: T1, α7 nicotinic acetylcholine receptor (Rattus norvegicus, UniProt Q05941); assay: functional FLIPR assay, α7 nAChR stably expressed in GH4C1 cells; type: cell-based; details: GH4C1 cells stably transfected with rat α7 nAChR; agonist concentration range 0.001 to 30 microM
T1 construct: expressed in transfected cells
Text: Rat GH4C1 cells were then transfected with the rat receptor, cloned and analyzed for functional alpha7 nicotinic receptor expression employing a FLIPR assay to measure changes in intracellular calcium concentrations.
The FLIPR system allows the measurements of real time Ca^2+-concentration changes in living cells using a Ca^2+ sensitive fluorescence dye (such as Fluo4). This instrument enables the screening for agonists and antagonists for alpha 7 nAChR channels stably expressed in GH4C1 cells.
GH4C1 cells stably transfected with rat-α7-nAChR (see above) were used. These cells are poorly adherent and therefore pretreatment of flasks and plates with poly-D-lysine was carried out. Cells are grown in 150 cm^2 T-flasks, filled with 30 ml of medium at 37° C. and 5% CO2.
EC50 and IC50 values were calculated using the IDBS XLfit4.1 software package employing a sigmoidal concentration-response (variable slope) equation:

[2] = solubility of hydrochloride crystal forms; type: physicochemical
[3] = hygroscopicity, Dynamic Vapor Sorption (DVS); type: physicochemical; details: for water absorbed eventually (up to): 90% RH; for RH at which moisture pick-up starts: relative humidity; for Hygroscopicity: hydrochloric acid salt
Protocol: Salt forms of a compound of formula 1 were investigated with X-ray powder diffraction, DSC, TGA and microscopy. FIG. 1 illustrates X-ray patterns observed for various salt forms. FIGS. 2 and 3 present results of thermal studies performed on such salt forms. FIGS. 4 and 5 present DVS data of sulfuric and phosphoric salts. […] FIGS. 6-12 show characterization data for hydrochloride salt forms.
Dynamic Vapor Sorption (DVS) was done at 25-26° C.

T1 sequence (Q05941 23-502): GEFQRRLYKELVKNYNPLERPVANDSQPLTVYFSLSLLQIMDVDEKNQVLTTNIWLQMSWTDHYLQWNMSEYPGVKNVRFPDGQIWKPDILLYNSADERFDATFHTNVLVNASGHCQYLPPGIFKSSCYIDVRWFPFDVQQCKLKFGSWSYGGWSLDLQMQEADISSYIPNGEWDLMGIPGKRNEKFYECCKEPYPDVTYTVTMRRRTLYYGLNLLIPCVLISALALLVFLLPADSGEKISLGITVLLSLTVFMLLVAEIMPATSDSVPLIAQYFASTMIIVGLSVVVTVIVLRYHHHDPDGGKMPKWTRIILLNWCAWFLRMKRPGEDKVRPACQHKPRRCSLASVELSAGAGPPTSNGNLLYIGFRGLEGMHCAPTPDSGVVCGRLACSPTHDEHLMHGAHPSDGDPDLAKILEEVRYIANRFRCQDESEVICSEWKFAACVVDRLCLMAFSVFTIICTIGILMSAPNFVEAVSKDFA

In the case of `C[N+]1(C)CCN(c2ccccc2)CC1` [DMPP], the EC50 [1] is reported as 980 ± 470 nM.

In the case of `COc1ccc(-c2cc(NC(=O)CCCCN3CCCN(C(C)=O)CC3)n[nH]2)cc1.Cl` [Form I, 5-(4-acetyl-1,4-diazepan-1-yl)-N-(5-(4-methoxyphenyl)-1H-pyrazol-3-yl)pentanamide hydrochloric salt Form I], the “solubility in water (in words)” value [2] is reported as “considerably soluble”, the “moisture gained at 70-100% RH” value ([3]; 70-100% RH, lost without significant hysteresis on decreasing RH) is reported as “at least 2%” and the “water absorbed eventually (up to)” value [3] is reported as “up to 2%”. The “moisture gained when equilibrated at RH less than or equal to 70%” value ([3]; RH <= 70%) was “about 0.5%” and the “RH at which moisture pick-up starts” value [3] was “about 50%”.

With `COc1ccc(-c2cc(NC(=O)CCCCN3CCCN(C(C)=O)CC3)n[nH]2)cc1.Cl` [Form II, 5-(4-acetyl-1,4-diazepan-1-yl)-N-(5-(4-methoxyphenyl)-1H-pyrazol-3-yl)pentanamide hydrochloric salt Form II] the “solubility in water (in words)” value [2] was “considerably soluble”, the “water absorbed eventually (up to)” value [3] was “up to 7%” and the “water held at low RH” value ([3]; low RH (0%)) was 2%. The “RH at which moisture pick-up starts” value [3] was “about 20%”.

For `COc1ccc(-c2cc(NC(=O)CCCCN3CCCN(C(C)=O)CC3)n[nH]2)cc1.Cl` [Form III], the solubility ([2]; MC/T, aqueous with cosolvent or surfactant or cyclodextrin) was > 100 mg/mL, the “water held at 50% RH” value ([3]; listed as Crystal Form III) was “(10% water” and the “Hygroscopicity (in words)” value ([3]; listed as Crystal Form III) was “Hygroscopic”.

For `COc1ccc(-c2cc(NC(=O)CCCCN3CCCN(C(C)=O)CC3)n[nH]2)cc1.Cl` [Form V], the “water held at 50% RH” value ([3]; listed as Crystal Form V) was “(7% at RH” and the “Hygroscopicity (in words)” value ([3]; listed as Crystal Form V) was “Hygroscopic”.

In the case of `COc1ccc(-c2cc(NC(=O)CCCCN3CCCN(C(C)=O)CC3)n[nH]2)cc1.Cl` [Hydrochloric acid, 5-(4-acetyl-1,4-diazepan-1-yl)-N-(5-(4-methoxyphenyl)-1H-pyrazol-3-yl)pentanamide hydrogen chloride], the melting point is reported as 132 to 133 °C, the Hygroscopicity ([3]; crystalline solid with melting onset 125° C. (first of two such lines)) is reported as “Yes” and the Hygroscopicity ([3]; crystalline solid with melting onset 165° C.) is reported as “Somewhat”. The Hygroscopicity ([3]; crystalline solid with melting onset 185° C.) was “No”, the Hygroscopicity ([3]; solid with three peaks: about 100, about 180 and about 200° C.) was “Yes” and the “hygroscopicity of the sample” value ([3]; hydrochloride salt of Example 2D, precipitated from DCM with HCl in Et2O) was “extreme hygroscopicity”. For the same compound, the “Hygroscopicity (in words)” value ([3]; listed as hydrochloride) was “non-hygroscopic”.

In the case of Sulfuric acid, the “water held at 50% RH” value [3] is reported as “maintains 0.4%”, the “water held at 50% RH” value ([3]; listed as sulfate salt form) is reported as “about 0.4%” and the “water held at 50% RH” value ([3]; listed as sulfuric salt form) is reported as “about 0.4%”. For the same compound, the “gain below 70% RH” value ([3]; below 70% RH) was 0.5%, the “Hygroscopicity (in words)” value ([3]; listed as sulfate salt) was “non-hygroscopic” and the “Hygroscopicity (in words)” value ([3]; listed as sulfate salt form) was “low degree of hygroscopicity”. The “Hygroscopicity (in words)” value ([3]; listed as sulfuric salt form) was “low degree of hygroscopicity”.
